In US11000033B2, “Ketone or oxime compound, and herbicide” (NISSAN CHEMICAL CORPORATION, priority 2014, dated 2021):

How the values were obtained:
Format in all cases: in vivo
transplanted rice plant = test: Test Example 1: effect on crop, application before weed generation in submerged conditions (symbol a); settings: application herbicide amount 320 g/ha
Procedure, shortened: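 Rice at 2.5 leaf stage transplanted into submerged soil (4 cm depth) sown with three weed species; herbicide applied before weed emergence.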

[1] = tested on: Echinochloa oryzacola Vasing.; test: Test Example 1: herbicidal activity, application before weed generation in submerged conditions (symbol A); settings: application herbicide amount 320 g/ha
Procedure, shortened: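 Application before weed emergence: an aqueous dilution of the emulsion formulation was poured onto the surface of 4 cm-deep floodwater on the day of sowing. Effect was judged after 3 weeks (greenhouse, 25–30 °C).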

rapeseed = test: Test Example 4: effect on crop by soil treatment (symbol g); settings: application herbicide amount 320 g/ha
Procedure, shortened: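 Plants are raised in a greenhouse (25° C. to 30° C.) from spot-sown seed, which sits under about 1.5 cm of sterilized diluvial soil in a box shared with weed species.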

wheat = test: Test Example 5: effect on crop by foliage application, plastic box (symbol e); settings: 320 g/ha, 3 weeks after application
Procedure, shortened: (§1)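 Soil: sterilized diluvial. Container: plastic box, 21 × 13 cm, 7 cm deep. Sowing: spot-like, ~1.5 cm cover. Growth: greenhouse, 25° C. to 30° C.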

Avena fatua = test: Test Example 4: herbicidal effect by soil treatment (symbol I); settings: application herbicide amount 320 g/ha
Procedure, shortened: (§2)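 Seeds were sown in sterilized diluvial soil, covered with about 1.5 cm of soil, and the soil surface was sprayed with a water-diluted emulsion of the compound at a predetermined rate. Plants grew in a greenhouse at 25° C. to 30° C.; effects were scored visually 3 weeks after application.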

Setaria viridis = test: Test Example 4: herbicidal effect by soil treatment (symbol G); settings: application herbicide amount 320 g/ha
Procedure, shortened: as §2

[2] = tested on: Echinochloa oryzacola Vasing.; test: Test Example 2: herbicidal activity, application during weed generation in submerged conditions (symbol A); settings: Table 23; application herbicide amount 320 g/ha; grade 0-5 by criteria of Test Example 1
Procedure, shortened: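 Visual herbicidal ratings, taken three weeks after dosing, reflect post-emergence water-surface application to seedlings at one to two leaves. Conditions: co-sown weeds in alluvial soil flooded to 4 cm, greenhouse held at 25° C. to 30° C.; compound given as water-diluted emulsion at a fixed herbicide amount.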

[3] = tested on: directly sowed rice plant; test: Test Example 3: effect on crop by foliage application, Wagner pot (symbol b); settings: application herbicide amount 320 g/ha
Procedure, shortened: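 Wagner pot (1/10000 are), alluvial soil, submerged 0.1–0.5 cm; sown E. crus-galli var. crus-galli, L. chinensis, C. difformis, rice; greenhouse 25–30 °C.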

Digitaria ciliaris = test: Test Example 5: herbicidal effect by foliage application, plastic box (symbol F); settings: 320 g/ha, 3 weeks after application
Procedure, shortened: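 Post-emergence spray; diluvial soil (sterilized), ~1.5 cm seed cover; greenhouse 25–30° C; 14-day-old plants; water-diluted emulsion at predetermined dose; visual score at 3 wk post-treatment.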

corn = test: Test Example 5: effect on crop by foliage application, plastic box (symbol c); settings: 320 g/ha, 3 weeks after application
Procedure, shortened: as §1

## CON=C(C)CC1CC(O)=C(c2c(C)cc(-n3cc(Cl)cn3)cc2C)C1=O (mixture of isomers) [6-004]
Transplanted rice plant
  Effect grade on crop, a: transplanted rice plant: 5 (Herbicidal ratio of 90% or more (almost completely withered))
[1]
  Herbicidal effect grade, A: Echinochloa oryzacola Vasing.: 5 (Herbicidal ratio of 90% or more (almost completely withered))
rapeseed
  g: rapeseed, effect on crop grade: 4 (Herbicidal ratio of 70% or higher and lower than 90%)
wheat
  e: wheat, effect on crop grade: 0 (Herbicidal ratio of 5% or lower (almost no effect))
Avena fatua
  I: Avena fatua, herbicidal effect grade: 4 (Herbicidal ratio of 70% or higher and lower than 90%)
Setaria viridis
  G: Setaria viridis, herbicidal effect grade: 5 (Herbicidal ratio of 90% or more (almost completely withered))
[2]
  Herbicidal effect grade, A: Echinochloa oryzacola Vasing.: 5 (Herbicidal ratio of 90% or more (almost completely withered))
[3]
  effect on crop b (directly sowed rice plant), grade 0-5: 5 (Herbicidal ratio of 90% or more (almost completely withered))
Digitaria ciliaris
  F: Digitaria ciliaris, herbicidal effect grade: 5 (Herbicidal ratio of 90% or more (almost completely withered))
corn
  c: corn, effect on crop grade: 4 (Herbicidal ratio of 70% or higher and lower than 90%)

## CCOC(=O)C(C(=O)CC1CC1)C1CC(O)=C(c2c(C)cc(C)cc2C)C1=O (stereo not shown) [2-025]
Transplanted rice plant
  Effect grade on crop, a: transplanted rice plant: 2 (Herbicidal ratio of 20% or higher and lower than 40%)
[1]
  Herbicidal effect grade, A: Echinochloa oryzacola Vasing.: 3 (Herbicidal ratio of 40% or higher and lower than 70%)
rapeseed
  g: rapeseed, effect on crop grade: 0 (Herbicidal ratio of 5% or lower (almost no effect))
wheat
  e: wheat, effect on crop grade: 0 (Herbicidal ratio of 5% or lower (almost no effect))
Avena fatua
  I: Avena fatua, herbicidal effect grade: 0 (Herbicidal ratio of 5% or lower (almost no effect))
Setaria viridis
  G: Setaria viridis, herbicidal effect grade: 5 (Herbicidal ratio of 90% or more (almost completely withered))
[3]
  effect on crop b (directly sowed rice plant), grade 0-5: 4 (Herbicidal ratio of 70% or higher and lower than 90%)
Digitaria ciliaris
  F: Digitaria ciliaris, herbicidal effect grade: 4 (Herbicidal ratio of 70% or higher and lower than 90%)
corn
  c: corn, effect on crop grade: 1 (Herbicidal ratio of 5% or higher and lower than 20%)

## CON=C(C)CC1CC(O)=C(c2c(C)cc(C(=O)OC)cc2C)C1=O (stereo not shown) [6-023]
Transplanted rice plant
  Effect grade on crop, a: transplanted rice plant: 4 (Herbicidal ratio of 70% or higher and lower than 90%)
[1]
  Herbicidal effect grade, A: Echinochloa oryzacola Vasing.: 0 (Herbicidal ratio of 5% or lower (almost no effect))
rapeseed
  g: rapeseed, effect on crop grade: 3 (Herbicidal ratio of 40% or higher and lower than 70%)
wheat
  e: wheat, effect on crop grade: 3 (Herbicidal ratio of 40% or higher and lower than 70%)
Avena fatua
  I: Avena fatua, herbicidal effect grade: 0 (Herbicidal ratio of 5% or lower (almost no effect))
Setaria viridis
  G: Setaria viridis, herbicidal effect grade: 3 (Herbicidal ratio of 40% or higher and lower than 70%)
[3]
  effect on crop b (directly sowed rice plant), grade 0-5: 5 (Herbicidal ratio of 90% or more (almost completely withered))
Digitaria ciliaris
  F: Digitaria ciliaris, herbicidal effect grade: 5 (Herbicidal ratio of 90% or more (almost completely withered))
corn
  c: corn, effect on crop grade: 3 (Herbicidal ratio of 40% or higher and lower than 70%)

## CON=C(C)CC1CC(O)=C(c2c(C)cc(C(C)=O)cc2C)C1=O (stereo not shown) [6-026]
Transplanted rice plant
  Effect grade on crop, a: transplanted rice plant: 3 (Herbicidal ratio of 40% or higher and lower than 70%)
[1]
  Herbicidal effect grade, A: Echinochloa oryzacola Vasing.: 1 (Herbicidal ratio of 5% or higher and lower than 20%)
rapeseed
  g: rapeseed, effect on crop grade: 0 (Herbicidal ratio of 5% or lower (almost no effect))
wheat
  e: wheat, effect on crop grade: 3 (Herbicidal ratio of 40% or higher and lower than 70%)
Avena fatua
  I: Avena fatua, herbicidal effect grade: 0 (Herbicidal ratio of 5% or lower (almost no effect))
Setaria viridis
  G: Setaria viridis, herbicidal effect grade: 4 (Herbicidal ratio of 70% or higher and lower than 90%)
[3]
  effect on crop b (directly sowed rice plant), grade 0-5: 5 (Herbicidal ratio of 90% or more (almost completely withered))
Digitaria ciliaris
  F: Digitaria ciliaris, herbicidal effect grade: 5 (Herbicidal ratio of 90% or more (almost completely withered))
corn
  c: corn, effect on crop grade: 5 (Herbicidal ratio of 90% or more (almost completely withered))
